Our source for the GI50 and TGI values is PubChem BioAssay (NCI).

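Where inhibition never reached the appropriate level, the endpoint shown equals the highest concentration tested. Otherwise, values were interpolated linearly from a five-concentration, 48-hour dose response in 96-well plates. GI50: concentration for 50% inhibition of growth. TGI: total growth inhibition.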

Some test systems named below: SNB-19 CNS; SK-MEL-28 melanoma; OVCAR-5 ovarian; OVCAR-3 ovarian; UACC-62 melanoma; COLO 205 colon; KM12 colon; HCT-15 colon; K-562 leukemia; SR leukemia.
What all share (test): growth of human tumour cells (NCI), 48 h

In the case of `CC(=O)OCC1OC(n2ccc(=O)[nH]c2=O)C(OC(C)=O)C1OC(C)=O` (stereo not drawn), the GI50 with SNB-19 CNS, in the assay with SK-MEL-28 melanoma, with OVCAR-5 ovarian, with OVCAR-3 ovarian, in the assay on UACC-62 melanoma and with COLO 205 colon was over 100 µM each time. Further, the GI50 with KM12 colon and with HCT-15 colon was over 100 µM throughout. The TGI with SNB-19 CNS, with SK-MEL-28 melanoma, in the assay on OVCAR-5 ovarian, in the assay on OVCAR-3 ovarian, in the assay with UACC-62 melanoma and in the assay on COLO 205 colon was over 100 µM in each case. Further, the TGI with KM12 colon and in the assay on HCT-15 colon was over 100 µM in each case.

With `NNC(=O)CCC(=O)NC1C2CC3CC(C2)CC1C3` (stereo not drawn), the TGI in the assay with SNB-19 CNS, in the assay on SK-MEL-28 melanoma, in the assay on OVCAR-5 ovarian, in the assay with UACC-62 melanoma, in the assay on K-562 leukemia and with COLO 205 colon was over 100 µM each time. Moreover, the TGI with KM12 colon and in the assay on HCT-15 colon was over 100 µM each time.

Turning to `COc1cc([C@@H]2c3cc4c(cc3[C@@H](NC(=O)c3ccccc3)C3COC(=O)[C@@H]32)OCO4)cc(OC)c1O` (stereo partly drawn), the TGI was over 100 µM in the assay with SNB-19 CNS; 87.7 µM in the assay on SK-MEL-28 melanoma; over 100 µM in the assay on OVCAR-5 ovarian; 56.7 µM in the assay with OVCAR-3 ovarian; 11.6 µM with UACC-62 melanoma; 33.8 µM in the assay with K-562 leukemia. In addition, the results for the TGI in the assay with COLO 205 colon, in the assay with KM12 colon and with HCT-15 colon were 92.8 µM, 28.3 µM and over 100 µM, respectively.

Take `CC1S(=O)(=O)OCCOS1(=O)=O`: the TGI in the assay on SNB-19 CNS is over 100 µM; with SK-MEL-28 melanoma it was over 100 µM; in the assay on OVCAR-5 ovarian it was over 100 µM; with OVCAR-3 ovarian, over 100 µM; in the assay with UACC-62 melanoma, over 83.5 µM; in the assay on K-562 leukemia it was over 100 µM. In addition, the TGI in the assay with COLO 205 colon, in the assay on KM12 colon and in the assay on HCT-15 colon was over 100 µM each time.

Take `COc1cccc(C(=O)C2C(=O)N(C)CCc3ccccc32)c1OC` (stereo not drawn): the TGI with SNB-19 CNS, in the assay with SK-MEL-28 melanoma, with OVCAR-3 ovarian, in the assay on UACC-62 melanoma, with K-562 leukemia and in the assay on COLO 205 colon was over 100 µM throughout. Further, the TGI with KM12 colon and in the assay on HCT-15 colon was over 100 µM in each case.

In the case of `O=NNc1nc(-c2cccnc2)nc2ccccc12`, the TGI in the assay with SNB-19 CNS, in the assay with SK-MEL-28 melanoma, in the assay with OVCAR-5 ovarian, with OVCAR-3 ovarian, in the assay with UACC-62 melanoma and with K-562 leukemia was over 100 µM in each case. Further, the TGI with COLO 205 colon, in the assay on KM12 colon and in the assay on HCT-15 colon was over 100 µM throughout.

As to `CC(=O)Oc1ccc(O)c(O)c1C/C=C(\C)CC/C=C(\C)CC/C=C(\C)CCC=C(C)C`, the TGI in the assay on SNB-19 CNS came to 2.8 µM; in the assay with SK-MEL-28 melanoma, 2.19 µM; in the assay on OVCAR-5 ovarian, 1.89 µM; in the assay with COLO 205 colon, 0.341 µM; in the assay on KM12 colon it was 11.5 µM.

With `COc1ccc(C2S/C(=C\c3ccc(O)cc3)C(=O)N2NC(=O)Cc2ccccc2)cc1` (stereo not drawn), the TGI in the assay with SK-MEL-28 melanoma, with SR leukemia, with OVCAR-5 ovarian, with UACC-62 melanoma, in the assay on K-562 leukemia and with COLO 205 colon was over 100 µM in each case. For the same molecule, the TGI in the assay on KM12 colon and with HCT-15 colon was over 100 µM each time.

`CC(=O)OC1c2ccccc2CCCCCCC12OCCO2` (stereo not drawn): the TGI in the assay on SNB-19 CNS, in the assay with SK-MEL-28 melanoma, in the assay on OVCAR-5 ovarian, in the assay with OVCAR-3 ovarian, in the assay on UACC-62 melanoma and in the assay on K-562 leukemia was over 100 µM in each case. Moreover, the TGI with COLO 205 colon, in the assay on KM12 colon and with HCT-15 colon was over 100 µM each time.

Turning to `COc1ccc(O)c(C#N)c1C#N`, the TGI in the assay on SNB-19 CNS, in the assay with OVCAR-5 ovarian, in the assay on OVCAR-3 ovarian, in the assay with UACC-62 melanoma, in the assay with K-562 leukemia and in the assay on COLO 205 colon was over 100 µM each time. Moreover, the TGI in the assay on KM12 colon and in the assay on HCT-15 colon was over 100 µM throughout.

Take `S=c1[nH]c2ccc(Br)cc2c(=S)n1-c1ccccc1`: the TGI in the assay on SNB-19 CNS is over 100 µM; with SK-MEL-28 melanoma it was 59.9 µM; with OVCAR-5 ovarian, over 100 µM; in the assay on OVCAR-3 ovarian, 78.3 µM; with UACC-62 melanoma it was 32.3 µM; in the assay with K-562 leukemia, over 100 µM. Also, the TGI came to 47.1 µM in the assay with COLO 205 colon, 72.5 µM with KM12 colon and 63.2 µM with HCT-15 colon.

Regarding `CN(C)CCOc1ccc2c(c1)C/C(=C/c1ncc([N+](=O)[O-])n1C)C2=O`, the TGI was 15.3 µM in the assay on SNB-19 CNS; 33.4 µM in the assay with SK-MEL-28 melanoma; 14.8 µM in the assay with OVCAR-5 ovarian; 6.27 µM with OVCAR-3 ovarian; 4.97 µM in the assay with UACC-62 melanoma; over 20 µM in the assay on K-562 leukemia. Also, the values for the TGI in the assay with COLO 205 colon, with KM12 colon and with HCT-15 colon were 3.33 µM, 11.6 µM and 3.92 µM, respectively.

Consider `CC(=O)[O-].CC(=O)[O-].[NH2-].[Pt+2].c1ccc2cnccc2c1`, for which the GI50 with SNB-19 CNS is over 100 µM; in the assay with SK-MEL-28 melanoma, 52.6 µM; in the assay on OVCAR-5 ovarian, over 100 µM; in the assay with OVCAR-3 ovarian it was 42.2 µM; with UACC-62 melanoma, 30.3 µM; in the assay with K-562 leukemia, 15.6 µM. Further, the results for the GI50 in the assay with COLO 205 colon, in the assay with KM12 colon and with HCT-15 colon were 24.7 µM, 13.5 µM and 16.9 µM, respectively. Further, the TGI in the assay on SNB-19 CNS is over 100 µM; in the assay with SK-MEL-28 melanoma, over 100 µM; in the assay with OVCAR-5 ovarian it was over 100 µM; with OVCAR-3 ovarian it was over 100 µM; in the assay on UACC-62 melanoma it was over 100 µM; in the assay with K-562 leukemia, 51.8 µM. In addition, the TGI is over 100 µM with COLO 205 colon, over 100 µM with KM12 colon and 45.8 µM with HCT-15 colon.

For the molecule `O=C(O)c1cc(=O)c2[nH]c3ccccc3c2s1`, the TGI in the assay on SNB-19 CNS, with SK-MEL-28 melanoma, in the assay on OVCAR-5 ovarian, in the assay with OVCAR-3 ovarian, with UACC-62 melanoma and in the assay on K-562 leukemia was over 100 µM each time. Besides, the TGI with COLO 205 colon, with KM12 colon and in the assay on HCT-15 colon was over 100 µM each time.

With `COc1ccc(NC(=O)c2cc(OC)c(OC)c(OC)c2)cc1`, the TGI with SNB-19 CNS was over 100 µM; in the assay on SK-MEL-28 melanoma, 94.4 µM; in the assay on OVCAR-5 ovarian, over 100 µM; in the assay with OVCAR-3 ovarian, over 100 µM; in the assay on UACC-62 melanoma, over 100 µM; with K-562 leukemia, over 100 µM. In addition, the TGI with COLO 205 colon was over 71.9 µM; in the assay on KM12 colon it was over 100 µM; with HCT-15 colon, over 100 µM.
